Columns and labels:
[1] = Phase 1 first-in-human study (NCT04178902): safety; type: in vivo
Description: This FIH study (NCT04178902) for ABBV-467 was a multicenter, open-label, dose-escalation study enrolling patients aged ≥18 years who had R/R MM, with the option to enroll R/R AML once recommended phase 2 dose (RP2D) was established. The study design was originally planned to consist of 2 parts: dose escalation and dose expansion, including a minimum of 6 patients treated during dose escalation at what was ultimately to be declared the RP2D. Patients must have received 3 or more prior lines of therapy including at least 1 or more immunomodulatory agents, 1 or more proteasome inhibitors, and 1 or more anti-CD38 monoclonal antibodies. Other eligibility criteria included: Eastern Cooperative Oncology Group performance status ≤2, measurable disease as defined by International Myeloma Working Group (IMWG) consensus criteria, an echocardiogram with an ejection fraction ≥50%, and adequate hematologic, hepatic, and renal function. The prespecified primary objectives were to characterize the safety and toxicity profiles, to establish the RP2D, and to determine the pharmacokinetic (PK) profile of ABBV-467 monotherapy. Safety evaluations included, but were not limited to, adverse event (AE) monitoring, physical examinations, vital sign measurements, electrocardiogram (ECG), cardiac enzyme monitoring, and clinical laboratory testing (hematology and chemistry) as a measure of safety and tolerability for the entire study duration. Parameters used to determine PK included maximum observed plasma concentration (Cmax), terminal elimination half-life (t1/2), area under the plasma concentration-time curve (AUC) from time 0 to time of last measurable concentration (AUCt), AUC from time 0 to infinity (AUC0-∞), and clearance using non-compartmental methods. Secondary objectives were preliminary evaluation of the efficacy of ABBV-467 in R/R MM and R/R AML. Preliminary efficacy endpoints were overall response rate (ORR), clinical benefit rate (CBR), and duration of response (DOR) as evaluated per adapted IMWG[36] criteria for MM and per adapted International Working Group (IWG)[37] and European Leukemia Net (ELN)[38] criteria for AML.
ABBV-467 was administered as an IV infusion once weekly, for each 28-day cycle over at least a 30-minute period beginning on day 1 of cycle 1. The first infusion was given at half the target dose level. Dosing increased from patient cohort to patient cohort; the escalation was guided by a Bayesian optimal interval design[39] on the basis of the cumulative number of patients who experienced a dose-limiting toxicity (DLT) at a given ABBV-467 dose level. The DLT observation period was defined as the first treatment cycle (cycle 1). AEs of any grade resulting in discontinuation of study drug or missing any dose as a result of toxicity unexplained by underlying disease will be considered a DLT. Any AE of grade 3 or higher will be considered a DLT, unless toxicity can solely be attributed to the underlying disease, with the following clarifications. A non-hematologic DLT was defined as: grade 3 mucositis, nausea, vomiting, or diarrhea that required total parenteral nutrition, tube feeding, or hospitalization lasting >72 h; any grade 4 non-hematologic laboratory abnormality; and any instance of an AE that met the definition of Hy’s Law.
Blood samples for plasma ABBV-467 concentration analysis were collected on days 1, 2, 3, and 15–17 of cycle 1 as well as on days 1 of cycles for PK analysis. Plasma samples of ABBV-467 were quantified using a validated LC-tandem MS with a lower limit of detection of 3 ng/mL. ABBV-467 PK parameters were calculated using standard non-compartmental approaches with Phoenix, WinNonlin (Version 8.0, Certara). AE severity was graded according to the National Cancer Institute Common Terminology Criteria for Adverse Events v5.0 for up to 30 days after the last dose. Analyses of AEs will include only treatment-emergent AEs. Triplicate ECGs were performed on days 1, 2, 15, and 16 of cycle 1. […]

OCI-AML2 xenografts = experiment: OCI-AML2 xenograft efficacy (tumor volume, body weight); conditions: for tumor response: for 20 days post-treatment
Description: All animal studies were conducted in accordance with the guidelines approved by the Institutional Animal Care and Use Committees of AbbVie. The research protocol was approved by In Vivo Pharmacology at AbbVie prior to study initiation but was not publicly registered or disclosed. Female C.B-17 SCID-beige mice (AMO-1, OPM-2, NCI-H929, and OCI-AML2 xenografts) and female NSG mice (MV4-11-Red.Fluc systemic) were purchased from Charles River Laboratories (Wilmington, MA). Animals were housed in a light cycle-controlled room with HEPA filtration at 22 °C. Animals had nesting and climbing cage topper as the primary environmental enrichment. Animals were inoculated subcutaneously in the right flank with 5 × 10^6 (AMO-1, OPM-2, NCI-H929, and OCI-AML2) or intravenous (IV) with 5 × 10^6 (MV4-11-Red.Fluc). The inoculation volume (0.2 mL) comprised a 50:50 mixture of cells in growth media and Matrigel (BD Biosciences) for subcutaneous injections and 100% phosphate-buffered saline for IV administration. […] Electronic calipers were used to measure the length and width of each tumor 2 to 3 times per week. Tumor volume was estimated by applying the following equation: volume = length × width^2/2. All groups remained blinded during measurements and dosing; only veterinary staff were aware of group identity. When tumors reached approximately 200 mm^3, mice were randomized by match and distributed into treatment and control groups. All xenograft trials were conducted using 5 to 10 mice per group, and all mice were ear tagged and monitored individually throughout the studies.
For combination studies, all compounds were administered within 30 min of each other.
The tumor growth delay (TGD) percentage was determined as the percentage increase of the median time period for the treatment group to reach an arbitrary tumor volume of 1000 mm^3 relative to the vehicle control group. […] A power analysis was conducted using historical data to determine the number of animals required to yield significance of 0.05 at a 30% difference. There were no animals excluded. Data from experiments in vivo were analyzed using the student’s t-test for TGI values and the Mann–Whitney U test for TGD using Excel and GraphPad Prism. Fisher’s exact test was used to probe significance of differences in response frequency.

[2] = combined with venetoclax and 5-azacitidine

## Cc1c(Cl)c2c(Cl)c(C)c1-c1c(-c3ccc(F)cc3)sc3ncnc(c13)O[C@@H](C(=O)O)Cc1cc(ccc1OCc1ccnc(-c3ccc(OC[C@H]4COCCO4)cc3)n1)OC[C@@H](CN1CCN(C)CC1)O2 [ABBV-467]
[1]; 0.32 mg/kg (n = 2)
  Any AE, n (%): 2 (100) n (%)
  TEAE: Anemia: 1 (50) n (%)
  TEAE: Arthralgia: 0 n (%)
  TEAE: Arthritis: 0 n (%)
  TEAE: Diarrhea: 1 (50) n (%)
  TEAE: Febrile neutropenia: 0 n (%)
  TEAE: Gastritis: 0 n (%)
  TEAE: Increased alanine aminotransferase: 0 n (%)
  TEAE: Increased amylase: 0 n (%)
  TEAE: Increased aspartate aminotransferase: 0 n (%)
  TEAE: Increased troponin I: 1 (50) n (%)
  TEAE: Increased troponin T: 0 n (%)
  TEAE: Malaise: 1 (50) n (%)
  TEAE: Nausea: 0 n (%)
  TEAE: Neutropenia: 0 n (%)
  TEAE: Pain in extremity: 0 n (%)
  TEAE: Pelvic pain: 0 n (%)
  TEAE: Vitreous floaters: 0 n (%)
[1]; 0.53 mg/kg (n = 3)
  Any AE, n (%): 3 (100) n (%)
  TEAE: Anemia: 0 n (%)
  TEAE: Arthralgia: 0 n (%)
  TEAE: Arthritis: 0 n (%)
  TEAE: Diarrhea: 0 n (%)
  TEAE: Febrile neutropenia: 0 n (%)
  TEAE: Gastritis: 0 n (%)
  TEAE: Increased alanine aminotransferase: 1 (33) n (%)
  TEAE: Increased amylase: 1 (33) n (%)
  TEAE: Increased aspartate aminotransferase: 2 (67) n (%)
  TEAE: Increased troponin I: 1 (33) n (%)
  TEAE: Increased troponin T: 1 (33) n (%)
  TEAE: Malaise: 0 n (%)
  TEAE: Nausea: 0 n (%)
  TEAE: Neutropenia: 0 n (%)
  TEAE: Pain in extremity: 0 n (%)
  TEAE: Pelvic pain: 0 n (%)
  TEAE: Vitreous floaters: 0 n (%)
[1]; 1 patient, grade 3 treatment-related troponin I elevation leading to discontinuation
  dose-limiting toxicity: classified as a DLT
[1]; N = 8
  patients with grade 3 TEAEs: 3 patients
  patients with treatment-related AEs: 63%
[1]; Total (N = 8)
  Any AE, n (%): 7 (88) n (%)
  TEAE: Anemia: 1 (13) n (%)
  TEAE: Arthralgia: 1 (13) n (%)
  TEAE: Arthritis: 1 (13) n (%)
  TEAE: Diarrhea: 2 (25) n (%)
  TEAE: Febrile neutropenia: 1 (13) n (%)
  TEAE: Gastritis: 1 (13) n (%)
  TEAE: Increased alanine aminotransferase: 1 (13) n (%)
  TEAE: Increased amylase: 1 (13) n (%)
  TEAE: Increased aspartate aminotransferase: 2 (25) n (%)
  TEAE: Increased troponin I: 2 (25) n (%)
  TEAE: Increased troponin T: 2 (25) n (%)
  TEAE: Malaise: 1 (13) n (%)
  TEAE: Nausea: 2 (25) n (%)
  TEAE: Neutropenia: 1 (13) n (%)
  TEAE: Pain in extremity: 1 (13) n (%)
  TEAE: Pelvic pain: 1 (13) n (%)
  TEAE: Vitreous floaters: 1 (13) n (%)
[1]; any dose cohort
  cardiac disorders: No cardiac disorders of any grade
  grade 5 toxicities: no grade 5 toxicities
OCI-AML2 xenografts; combined with venetoclax
  TGD: > 878%
  TGI: 99%
  tumor response: complete tumor regression in all tumors
OCI-AML2 xenografts; [2]
  TGD: > 878%
  TGI: 99%
  tumor response: complete tumor regression in all tumors
OCI-AML2 xenografts; doublet (with venetoclax)
  animals remaining tumor free at 120 days post-inoculation: 62.5%
OCI-AML2 xenografts; in combination with 5-azacitidine
  sensitivity of OCI-AML2 tumors: resistant
OCI-AML2 xenografts; monotherapy
  sensitivity of OCI-AML2 tumors: resistant
OCI-AML2 xenografts; triplet (with venetoclax and 5-azacitidine)
  animals remaining tumor free at 120 days post-inoculation: 62.5%
